Positions of bridges follow the written chain, without caps; N, C: chain ends. Non-standard residues stand in square brackets, D forms with d. No end group written: not given here.
Test system: 5637 bladder cancer cells
Test: Alanine walk and X5 glycine addition, bead binding to 5637 cells
Set-up: species or system human
Conditions: compared with parental PLZ4
Method: FIG. 6A-C. Binding of PLZ4 to ανβ3 integrin A. PLZ4 binds to ανβ3 integrin. Beads coated with PLZ4 peptides were incubated with K562 cells transfected with different integrin subunits. PLZ4 can only bind to K562 cells when ανβ3 integrin is expressed on the surface. B. Alanine walk to determine the amino acids important for cell binding. Each amino acid in PLZ4 (SEQ ID NO: 5) was replaced with alanine one at a time to generate beads covered with new peptides (SEQ ID NOS 24-30, respectively, in order of appearance) (alanine walk), and tested for their binding to 5637 bladder cancer cells. Semi-quantitative system was used to determine binding activity: ++++ means very strong binding with 75-100% bead surface covered by cells; +++ means strong binding with 50-74% bead surface covered by cells; […] binding with 25-49% bead surface covered by cells; + means weak binding with 1-24% bead surface covered by cells; − means no binding. C. The effects of glycine residues at the X5 position on the binding of PLZ4 to bladder cancer cells. The peptides on beads in each panel have the same backbone sequence (cQDGRKGFc; SEQ ID NO:11) as PLZ4 (cQDGRMGFc; SEQ ID NO:12) except the M at the X5 position has been replaced with K. One (c) to six (h) numbers of glycine were conjugated to K from Panel c to h (SEQ ID NO:13). The OBOC beads were incubated with 5637 TCC cells. […]

Substance: cQDGRKGFc ([dC]QDGRKGF[dC]; disulfide 1-9) [PLZ4 backbone with the M at the X5 position replaced with K]
- binding of modified peptides on beads to 5637 cells: no significant changes in binding

Reference: US10335365B2, “Bladder cancer specific ligand peptides” (The Regents of the University of California, priority 2009, dated 2019)
